Results taken from patent US20060281695A1, “Control of parasites in animals by N-[(phenyloxy)phenyl]-1,1,1-trifluoromethanesulfonamide and N-[(phenylsulfanyl)phenyl]-1,1,1-trifluoromethanesulfonamide derivatives” (priority 2005, published 2006).

Experiments:
[1] = test system: Haemonchus contortus; test: Haemonchus contortus larvacidal (larval development) assay, LD99; type: in vitro
Procedure: The LD99 value is the dose, expressed as […], that was required to kill 99% of a sample of Haemonchus contortus.
a) Haemonchus Contortus Larvacidal Assay:
The effect of compounds on larval development was determined in the assay described by Gill et al. [International Journal of Parasitology 25:463-470 (1995)]. Briefly, in this assay, nematode eggs are applied to the surface of an agar matrix containing the test compound and then allowed to develop through to the L3, infective stage (6 days). The wells for each dilution of every compound (from highest to lowest concentration) are inspected to determine the well number corresponding to the lowest concentration at which development is inhibited in 99% of the nematode larvae present (LD99). Because well numbers correspond to a two-fold serial dilution of each compound, a titre (dilution factor) is generated as 2^n−1, where n is the well number. By dividing the highest concentration tested by the titre an LD99 value can be obtained, representing the concentration required to inhibit development in 99% of the nematode larvae present. The compounds supplied as solid and viscous liquids are dissolved in DMSO. Twelve serial one-half dilutions in DMSO solution are prepared from the stock solution, each of which is then diluted 1/5 with water. Aliquots (10 μl) of each dilution are transferred to the bioassay plates to give a final concentration range of 0.024 to 50 μg/ml.
(§1) In Table 7, provided below, are listed the Haemonchus contortus LD99 values (measured in micrograms/mL), the Ctenocephalides felis rapid screening values (measured in % mortality), the Ctenocephalides felis LC50 values (measured in micrograms/cm^2) and the Rhipicephalus sanguineus rapid screening values (measured in % mortality) for selected compounds in accordance with the present invention.

[2] = test system: cat flea (Ctenocephalides felis); test: Ctenocephalides felis adulticide assay: single dose screen on treated glass surface (% mortality at 1.26 μg/cm^2, 24 hours); type: in vivo; settings: for Ctenocephalides felis Mortality (%) 24 h / Ctenocephalides felis Mortality (%), measured at 48 hours: in vivo; for mortality at 1.26 µg/cm2, 1.26 µg/cm2: Ctenocephalides felis, 24 h, read-out: Ctenocephalides felis Mortality (%) 24 h
Procedure: (§2) The LC50 value is the concentration, expressed as μg/cm^2, that was required to kill 50% of the sample of cat fleas on contact with the tested compound. Certain tests are also reported as the percent of a sample of cat fleas that were killed at a concentration of 1.26 μg/cm^2 (“% mortality”), for the compounds tested in this way.
b) Ctenocephalides felis Adulticide Assay: C.felis single dose screen
Mortality of fleas is the primary endpoint in the assay. […] The concentration chosen (1.26 μg/cm^2) is higher than that known to kill 90% of cat fleas (LC90) using the reference compound, permethrin.
(§3) The test species employed was the cat flea (Ctenocephalides felis). The strain used was obtained from external suppliers as pupae and held in the laboratory under testing conditions until the adults had emerged. Fifteen (15) fleas were used in a minimum of four replicates against a single concentration level (approximately 60 fleas). The insects were selected to be in the adult life stage, aged between 3 and 7 days post emergence.
The compounds to be tested were supplied as solids and were prepared in acetone as described below prior to testing. Samples were stored in a refrigerator (5±1° C.) unless otherwise specified.
During the mortality testing, the temperature was maintained at 25±1° C. Humidity was maintained at 75±5%. The base (area=159 mm^2) of a 100 mL glass Erlenmeyer (conical) flask provided the treatment surface. Flasks were pre-treated with Coatasil™ glass treatment to maximise bio-availability of test compounds by preventing them from binding to glass the surface. The base of the 100 mL Erlenmeyer flask was treated with 0.5 mL of test sample in acetone and gently swirled. This volume was sufficient to cover the base of the flask. Flasks were left to dry for 24 hours before flea exposure.
Adult cat fleas were placed into a sorting chamber, which allowed fleas to jump into the Erlenmeyer flasks. Fifteen (15) adult cat fleas were collected in each flask. The top of the flasks were then covered in Parafilm™ and small holes were made to allow gas exchange. A 0.5 mL volume of acetone as a solvent control was applied to the base of an Erlenmeyer flask and the testing proceeded in the same manner described above. […] Pooled 24 hour mortality data were converted to percentages and are summarized by Table 4, below.
as §1

[3] = test system: cat flea (Ctenocephalides felis); test: Ctenocephalides felis adulticide assay: dose response on treated glass surface (LC50, 24 hours); type: in vivo; settings: adult cat fleas, 24 h mortality, probit analysis
Procedure: as §2
c) Ctenocephalides felis Adulticide Assay: C. felis dose response The purpose of this example is to determine the LC50 when cat fleas are contacted with a glass surface treated with sample compounds or formulations prepared as described above. Mortality of fleas is defined as follows: fleas are considered dead if they don't move or are on their sides and unable to walk or right themselves. LC50: Lethal Concentration 50— concentration of glass surface treatment at which 50% of the cat fleas are killed.
as §3, with “for each dose” for “against a single concentration”, “(total of” for “(approximately”, “fleas per dose level).” for “fleas).”
The compounds to be tested were dissolved in acetone just prior to testing. Samples of compounds were stored in a refrigerator (5±1° C.) unless otherwise specified. During the mortality testing, the temperature was maintained at 25±1° C. Humidity was maintained at 75±5%. The base (area=159 mm^2) of a 100 mL glass Erlenmeyer (conical) flask provided the treatment surface. Flasks were pre-treated with Coatasil™ glass treatment to maximise bio-availability of test compounds by preventing them from binding to the glass surface.
Six dose levels (concentrations) of test sample, in the form of a serial dilution, were derived from a pilot study and covered a range that produced very low to very high mortality. The base of the 100 mL Erlenmeyer flask was treated with 0.5 mL of test sample in acetone and gently swirled. This volume was sufficient to cover the base of the flask. Flasks were left to dry for 24 hours before flea exposure. Adult cat fleas were lightly anaesthetised by cooling and then placed into a sorting chamber, which allowed fleas to revive and jump into the Erlenmeyer flasks. Fifteen (15) adult cat fleas were collected in each flask. The top of the flasks were then covered in Parafilm™ and small holes made to allow gas exchange. A 0.5 mL volume of acetone was applied to the base of an Erlenmeyer flask and the testing proceeded in the same manner described above. Cat fleas in the treatment containers were held under testing conditions for 24 hours. Mortality resulting from the treatments was recorded at 24 hours. […] 3rd ed. Cambridge Univ. Press, London (1971)].
as §1

[4] = test system: Brown Dog Tick (Rhipicephalus sanguineus); test: Topical application on brown dog ticks, single dose screen (% mortality at 24 hours); type: in vivo; settings: adult brown dog ticks, topical 1 μL in acetone on abdomen, single dose 10 μg per tick
Procedure: d) Topical Application On Brown Dog Ticks (Rhipicephalus sanguineus)
The aim of the test is to determine the presence of significant acaricidal activity in sample compounds or formulations when applied topically on brown dog ticks. A tick is defined as dead if it gives no apparent response when: (i) touched lightly and (ii) then observed for 1 minute. To assess the experimental compound for acaricidal activity, a single dose level is chosen based on known results from previous experiments with a commercially available active reference compound.
In the present example, both permethrin and fipronil were employed as reference compounds. The insect species tested was the Brown Dog Tick (Rhipicephalus sanguineus). Mixed sex adult ticks were used for tests. The strain used was cultured from a field strain and supplied as unfed adult ticks (mixed sex). Ticks were maintained in controlled conditions (temp. 18°±2° C., humidity 75±5% RH).
Test compounds (formulations or active ingredients) were stored in a refrigerator (5±1° C.) unless otherwise specified. The temperature was maintained at 25±1° C. and the humidity was ambient. The screening dose chosen was higher than that known kill 90% of insects (LD90) using the reference compound. In the case of topical application of active compounds on adult ticks, the reference compound was fipronil and the dose chosen was 10 μg of active per tick (=10 μg of fipronil/1 μl of acetone). Ticks were each treated on the abdomen with 1 μL of a single dose level of test sample in acetone; ten ticks were treated with solvent only (acetone) in each test. Tests were replicated 4 times (total of 40 ticks treated). Ticks were held in recovery containers maintained under appropriate rearing conditions for 24 hours. Mortality resulting from the treatments was recorded at 24 hours. Pooled 24 hour mortality data were converted to percentages.
as §1

Compound	Haemonchus contortus LD99 [1] [µg/mL]	Ctenocephalides felis Mortality (%) 24 h [2] [%]	Ctenocephalides felis LC50 [3] [μg/cm^2]	Rhipicephalus sanguineus Mortality (%) 24 h [4] [%]	mortality at 1.26 µg/cm2, 1.26 µg/cm2 [2] [%]	Ctenocephalides felis Mortality (%), measured at 48 hours [2] [%]
O=S(=O)(Nc1ccc(Cl)cc1Oc1ccc(F)cc1F)C(F)(F)F [Compound 4]	12.0	98	0.27	83		
O=S(=O)(Nc1ccc(Cl)cc1Sc1ccc(F)cc1)C(F)(F)F [Compound 20]	13.0	100	0.13	95		
O=S(=O)(Nc1ccc(Cl)cc1Sc1ccccc1)C(F)(F)F [Compound 59]		100	0.97			
Cc1ccccc1Oc1cc(Cl)ccc1NS(=O)(=O)C(F)(F)F [Compound 21]	15.0	100	0.12	90		
O=S(=O)(Nc1ccc(Cl)cc1Oc1cccc(F)c1)C(F)(F)F [Compound 25]		100	0.73			
O=S(=O)(Nc1ccc(Cl)cc1Oc1ccc(Cl)cc1)C(F)(F)F [Compound 5]	11.0	100	0.66			
O=S(=O)(Nc1cc(C(F)(F)F)ccc1Oc1cccc(C(F)(F)F)c1)C(F)(F)F [Compound 9]	2.5	94	0.09	25		
O=S(=O)(Nc1ccc(Cl)cc1Sc1cccc(Cl)c1)C(F)(F)F [Compound 15]	5.5	100	0.30			
O=S(=O)(Nc1cc(Cl)ccc1Oc1ccc(Cl)cc1Cl)C(F)(F)F [Compound 8]	2.75	62	0.59			
CN(c1ccc(Cl)cc1Oc1ccc(Cl)cc1Cl)S(=O)(=O)C(F)(F)F [Compound 70, N-[4-Chloro-2-(2,4-dichlorophenoxy)phenyl]-N-methyl-1,1,1-trifluoromethanesulfonamide]				5	11	91
COCN(c1cccc(Oc2ccccc2)c1)S(=O)(=O)C(F)(F)F [m4]		90		8		
O=S(=O)(Nc1ccc(Cl)cc1Oc1ccc(F)c(F)c1)C(F)(F)F [Compound 16]	11.0	100	0.78			
CC(C)(C)C(=O)OCN(c1ccc(Cl)cc1Oc1ccc(Cl)cc1Cl)S(=O)(=O)C(F)(F)F [Compound 72, N-[4-Chloro-2-(2,4-dichlorophenoxy)phenyl]-N-(trimethylacetyl)oxymethyl-1,1,1-trifluoromethanesulfonamide]				0	14	100
O=S(=O)(Nc1ccc(Cl)cc1Sc1ccccc1F)C(F)(F)F [Compound 68]		100	0.59	55		
O=S(=O)(Nc1cc(C(F)(F)F)ccc1Oc1ccc(F)cc1)C(F)(F)F [Compound 30]		100	0.71			
CCOCN(c1ccc(Cl)cc1Oc1ccc(Cl)cc1Cl)S(=O)(=O)C(F)(F)F [Compound 71, N-[4-Chloro-2-(2,4-dichlorophenoxy)phenyl]-N-ethoxymethyl 1,1,1-trifluoromethanesulfonamide]		0		5		100
O=S(=O)(Nc1ccc(C(F)(F)F)cc1Oc1cccc(C(F)(F)F)c1)C(F)(F)F [Compound 55]		100	1.88			
O=S(=O)(Nc1cccc(Oc2ccccc2)c1)C(F)(F)F [m1]		93		38		
CCc1ccccc1Oc1cc(Cl)ccc1NS(=O)(=O)C(F)(F)F [Compound 38]		95	0.75			
O=S(=O)(Nc1ccc(Cl)cc1Oc1ccc(F)cc1)C(F)(F)F [Compound 26]		100	0.33			
